Data on two compounds can be found in US7084136B2, “Drug composition antagonistic to both PGD2/TXA2 receptors” (Shionogi & Co., Ltd., priority 2000, dated 2006).

Read-outs that look alike come from different tables or passages of the source.

Assay [1] addresses T1, TXA2 receptor (Homo sapiens, UniProt P21731).
T1 construct: The human platelet membrane fraction was prepared in accordance with Experiment 1 (1); from tissue; host or cells: human platelet membrane fraction from blood of healthy volunteers
T1 sequence (P21731 1-343): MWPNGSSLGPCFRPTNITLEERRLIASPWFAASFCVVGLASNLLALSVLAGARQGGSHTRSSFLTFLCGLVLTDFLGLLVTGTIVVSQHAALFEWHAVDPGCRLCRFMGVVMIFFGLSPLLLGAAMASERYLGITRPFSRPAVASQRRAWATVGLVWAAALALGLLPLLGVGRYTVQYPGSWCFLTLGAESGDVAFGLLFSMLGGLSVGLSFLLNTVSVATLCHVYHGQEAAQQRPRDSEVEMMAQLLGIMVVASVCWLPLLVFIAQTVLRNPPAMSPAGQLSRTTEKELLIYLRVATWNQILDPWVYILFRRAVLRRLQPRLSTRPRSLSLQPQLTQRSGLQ
Nature of the assay: Binding activity to TXA2 receptor ([3H](+)-S-145 sodium salt, human platelet membrane fraction). The procedure:
Experiment 2 Binding Activity to TXA2 Receptor
(1) Preparation of Human Platelet Membrane Fraction
The human platelet membrane fraction was prepared in accordance with Experiment 1 (1).
(2) Binding to TXA2 Receptor
To a binding-reaction solution (50 mM Tris/HCl, pH 7.4, 10 mM MgCl2) (0.2 ml) were added the human platelet membrane fraction (0.05 mg) and 2 nM Sodium [^3H](+)-(5Z)-7-[3-endo-[(phenylsulfonyl)amino]bicyclo[2.2.1]hept-2-exo-yl]heptenoate (Japanese Patent Publication (Kokoku) No.79060/1993, hereinafter referred to as (+)-S-145 sodium salt) (26.4 Ci/mmol), and the mixture was reacted at room temperature for 90 min. After the reaction, the resultant mixture was filtered through a glass fiber filter paper and washed several times with cooled physiological saline, then the radioactivity retained on the filter paper was measured. The specific-binding ratio was calculated by subtracting the non-specific binding ratio (the radio activity similarly determined in the presence of 10 μM (+)-S-145 sodium salt) from the total binding. The inhibitory activity of each compound was expressed as the concentration required for 50% inhibition (IC50), which was determined by depicting a substitution curve by plotting the binding ratio (%) in the presence of each compound, where the binding ratio in the absence of a test compound is 100%.

The target of assay [2] is T2, PGD2 receptor (Homo sapiens, UniProt Q13258).
T2 construct: A suspension adjusted to contain the platelets at a final concentration of 5×10^8/ml was warmed at 37° C; endogenous in cells; host or cells: washed human platelets from a healthy volunteer
T2 sequence (Q13258 1-359): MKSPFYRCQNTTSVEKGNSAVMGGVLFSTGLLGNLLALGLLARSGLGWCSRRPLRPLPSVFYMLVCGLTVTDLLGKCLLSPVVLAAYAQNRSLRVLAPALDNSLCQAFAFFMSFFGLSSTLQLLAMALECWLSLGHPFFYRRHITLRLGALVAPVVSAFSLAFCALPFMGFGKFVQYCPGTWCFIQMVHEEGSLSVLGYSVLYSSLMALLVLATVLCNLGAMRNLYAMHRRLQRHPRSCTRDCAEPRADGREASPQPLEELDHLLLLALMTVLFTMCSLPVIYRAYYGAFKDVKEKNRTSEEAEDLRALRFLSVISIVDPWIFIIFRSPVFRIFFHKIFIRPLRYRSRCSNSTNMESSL
Nature of the assay: Antagonistic activity against PGD2 receptor using human platelet (inhibition of PGD2-induced cAMP increase). It is filed as cell-based. The procedure: Experiment 3 Evaluation of Antagonistic Activity Against PGD2 Receptor
Receptor Using Human Platelet
Peripheral blood was collected from a healthy volunteer using a syringe in which 1/9 volume of a citric acid/dextrose solution was previously added. The sample was subjected to centrifugation at 1200 rpm for 10 min to obtain the supernatant (PRP: platelet rich plasma). The resultant PRP was washed 3 times with a washing buffer and the number of platelets was counted with a micro cell counter. A suspension adjusted to contain the platelets at a final concentration of 5×10^8/ml was warmed at 37° C., then subjected to the pre-treatment with 3-isobutyl-1-methylxanthine (0.5 mM) for 5 min. To the suspension was added a test compound diluted at various concentration, and 10 minutes later, 0.1 μM PGD2 was added to induce the reaction 2 minutes later, hydrochloric acid was added to terminate the reaction. The platelet was destroyed with an ultrasonic homogenizer. After centrifugation, the cAMP in the supernatant was determined by radioimmunoassay. PGD2 receptor antagonism of a drug was evaluated as follows: the inhibition rate regarding cAMP increased by the addition of PGD2 was determined at each concentration, and the concentration of the drug required for 50% inhibition (IC50) was calculated.

Assay [3] relates to Eosinophil Number in Bronchoalveolar Lavage Fluid. In words: Antigen-induced increase in the eosinophil number in bronchoalveolar lavage fluid. In kind it is in vivo, guinea pig. Conditions: for suppression of eosinophil infiltration: summary of Table 77 to Table 79, bronchoalveolar lavage fluid. The procedure: Antigen-Induced Increase in the Eosinophil Number in Bronchoalveolar Lavage Fluid.
Bronchoalveolar lavage was performed with 10 mL of saline, after the animals were sensitized and challenged with antigen. The number of total cells in the recovered fluid was stained with Türk and counted using hemocytometer. *: P<0.05, **:P<0.01 vs Vehicle(Dunnett's test), ^##: P<0.01 vs Vehicle(Student's t test). ( ): inhibition %.

Assay [4] deals with PGD2 receptor. In words: Acceleration of vascular permeability of conjunctiva induced by PGD2 (Evans blue dye leakage). In kind it is in vivo, guinea pig. Conditions: for ED50 PGD2: oral, 1 h before challenge, 0.1% PGD2 instillation, conjunctival dye leakage, guinea pigs; for inhibition of the increase in vascular permeability in conjunctiva by the stimulation with PGD2: summary of Table 80, oral 1 h before challenge, guinea pig. The procedure:
(§1) Acceleration of Vascular Permeability of Conjunctiva Induced by PGD2 and U-46619
(§2) Using male Hartley guinea pigs, PGD2- and TxA2 receptor-mediated increase in conjunctival vascular permeability was produced by instillation of each 10 μl solution of either 0.1% PGD2 or U-46619 (TXA2 receptor agonist) to the both eyes without anesthetization. Immediately after that, Evans blue dye (20 mg/kg) was intravenously injected. 30 min after the challenge, guinea pigs were sacrificed by bleeding under anesthesia with Pentobarbital (30 mg/kg, i.p.) and the tissue of conjunctiva was removed. The dye leaked into the tissue was extracted in formamide 3 ml at 60° C. for more than 24 h, and then centrifuged. The absorbance of the supernatant was measured at 620 nm. The amount of dye was calculated from the calibration curve of Evans blue dye. Each compound was suspended in 0.5% methyl-cellulose and administrated orally at 1 h before the challenge. The antagonistic activity was evaluated by the inhibition ratio against the dye leaked into conjunctiva caused by PGD2 or U-46619 at each dose and then a 50% effective dose of inhibition (ED50 value) of each compound was calculated.

The subject of assay [5] is TxA2 receptor. In words: Acceleration of vascular permeability of conjunctiva induced by U-46619 (Evans blue dye leakage). In kind it is in vivo, guinea pig. Conditions: for ED50 TXA2 (U-46619): oral, 1 h before challenge, 0.1% U-46619 instillation, conjunctival dye leakage, guinea pigs; for inhibition of the increase in vascular permeability in conjunctiva caused by U-46619: summary of Table 80, oral 1 h before challenge, guinea pig. As to the method: as §1, §2

The mark [6] stands for this setting: comparative experiment in accordance with Experiment 2, read-out: Experiment 2 Antagonistic activity against TXA2 receptor IC50.
The mark [7] stands for this setting: comparative experiment in accordance with Experiment 3, read-out: Experiment 3 Antagonistic activity against PGD2 receptor IC50.
The mark [8] stands for this setting: 10 mg/kg, bronchoalveolar lavage fluid after antigen challenge.

Take `O=C(O)CCC/C=C\C[C@H]1[C@@H]2CC[C@@H](C2)[C@@H]1NS(=O)(=O)c1ccccc1` [A, reference compound]: the IC50 on TXA2 receptor [1] (setting [6]) came out at 3.8 nM. Also, on PGD2 receptor [2] (setting [7]), the 50% inhibitory concentration (IC50) was more than 10000 nM. Moreover, in assay [3] (setting [8]), the Total cells was 15.20 ± 2.20 × 10^6 cells/animal. In addition, in assay [3] (Cavia porcellus, Eosinophil, 10 mg/kg, bronchoalveolar lavage fluid after antigen challenge, read-out: inhibition % (total cells in bronchoalveolar lavage fluid) (converted)), the inhibition at 10 mg/kg was -12%. For the same compound, the “suppression of eosinophil infiltration” value in assay [3] is on record as “did not show any inhibitory actions”. For the same compound, in the assay with PGD2 receptor [4], the “ED50 PGD2” value is given as more than 30 mg/kg and the “inhibition of the increase in vascular permeability in conjunctiva by the stimulation with PGD2” value is on record as “suppressed only U-46619-induced response”. For the same compound, in the assay on TxA2 receptor [5], the “ED50 TXA2 (U-46619)” value worked out at 0.017 mg/kg and the “inhibition of the increase in vascular permeability in conjunctiva caused by U-46619” value is “suppressed”.
As for `Cc1cccn1S(=O)(=O)c1ccc(C(=O)N[C@@H]2[C@@H](CCCC/C=C/C(=O)O)C[C@H]3C[C@@H]2C3(C)C)s1` [II-7I-55a], on TXA2 receptor [1] (setting [6]), the IC50 amounted to 2.3 nM. Besides, at TXA2 receptor [1] (human platelet membrane fraction, 2 nM [3H](+)-S-145 sodium salt, read-out: Binding activity to TXA2 receptor in human platelet membrane fraction IC50), the half-maximal inhibitory concentration (IC50) is 2.3 nM. For the same compound, the IC50 at PGD2 receptor [2] (setting [7]) amounted to 63 nM. Further, the 50% inhibitory concentration (IC50) on PGD2 receptor [2] (human platelet, 0.1 μM PGD2, read-out: Inhibitory activity for the increase of cAMP caused by PGD2 in human platelet IC50) was found to be 63 nM. Moreover, in assay [3] (setting [8]), the Total cells is recorded as 12.26 ± 1.54 × 10^6 cells/animal and the “inhibition % (total cells in bronchoalveolar lavage fluid)” value is listed as 80%. For the same compound, the “suppression of eosinophil infiltration” value in assay [3] was “significantly suppressed”. Besides, in the assay with PGD2 receptor [4], the “ED50 PGD2” value is 0.33 mg/kg and the “inhibition of the increase in vascular permeability in conjunctiva by the stimulation with PGD2” value is “showed both responses”. For the same compound, in the assay with TxA2 receptor [5], the “ED50 TXA2 (U-46619)” value was determined as 0.030 mg/kg and the “inhibition of the increase in vascular permeability in conjunctiva caused by U-46619” value was “showed both responses”.

Broadly, the IC50 is the concentration that gives 50% inhibition. One may read the inhibition as the drop in the measured response relative to a control, in per cent.
